Reference: patent publication US12390486B2, “Method for treating diastolic heart failure by inhibiting galectin-3” (Henry Ford Health System, priority 2012, dated 2025)
Where “and” joins values, the source holds several entries; their conditions need not be identical. Equal values may be shown once.

Test system: dogs with microembolization-induced HF
Assay: LacNAc in dogs with microembolization-induced HF (Example 2)
Type: in vivo, dog
Conditions: for VFIF (LV Volume fraction of interstitial fibrosis) / ODD (Oxygen diffusion distance) / VFRF (LV volume fraction of replacement fibrosis) / MCSA (myocyte cross-sectional area) / Cap/mm^2 (Capillary density) / Cardiac Output / PE/PA / Ei/Ai / Stroke Volume / Left Ventricular Fractional Area of Shortening / Left Ventricular Ejection Fraction / Left Ventricular End-Systolic Volume / Left Ventricular End-Diastolic Volume / Diastolic Aortic Pressure / Mean Aortic Pressure / Heart Rate / Systolic Aortic Pressure / DT / Systemic Vascular Resistance: individual dogs and Mean (n=3); for VFIF (LV Volume fraction of interstitial fibrosis): historical controls mean 12.95; for ODD (Oxygen diffusion distance): historical controls mean 13.10; for VFRF (LV volume fraction of replacement fibrosis): historical controls mean 13.8; for MCSA (myocyte cross-sectional area): historical controls mean 575; for Cap/mm^2 (Capillary density): historical controls mean 2063; for Cardiac Output / PE/PA / Ei/Ai / Stroke Volume / Left Ventricular Fractional Area of Shortening / Left Ventricular Ejection Fraction / Left Ventricular End-Systolic Volume / Left Ventricular End-Diastolic Volume / Diastolic Aortic Pressure / Mean Aortic Pressure / Heart Rate / Systolic Aortic Pressure / DT / Systemic Vascular Resistance: 115 mg LacNAc oral daily, 12 weeks; for Cardiac Output: PRE mean 1.41; for PE/PA: PRE mean 1.80; for Ei/Ai: PRE mean 2.98; for Stroke Volume: PRE mean 17; for Left Ventricular Fractional Area of Shortening: PRE mean 28.3; for Left Ventricular Ejection Fraction: PRE mean 30; for Left Ventricular End-Systolic Volume: PRE mean 39; for Left Ventricular End-Diastolic Volume: PRE mean 56; for Diastolic Aortic Pressure: PRE mean 62; for Mean Aortic Pressure: PRE mean 73; for Heart Rate: PRE mean 84; for Systolic Aortic Pressure: PRE mean 87; for DT: PRE mean 131; for Systemic Vascular Resistance: PRE mean 4209
Protocol: In this dog model of HF, the development of the disease is associated with an increase in the volume fraction of interstitial fibrosis in the left ventricular wall from a normal level of 3.5% (connective tissue) to as high as 25%. Dogs were treated for 3 months with daily oral administration of 115 mg of LacNAc. […] This finding is similar to that observed with MCP (Example 1), as illustrated in FIG. 2. […] All of these findings support a marked improvement of LV function and cellular remodeling sought for treatment of HFpEF.

[1] = 115 mg LacNAc oral daily for 3 months, 3 dogs
[2] = 115 mg LacNAc oral daily for 3 months
[3] = 115 mg LacNAc oral daily for 3 months, mean

CC(=O)N[C@H]1C(O)O[C@H](CO)[C@@H](O[C@@H]2O[C@H](CO)[C@H](O)[C@H](O)[C@H]2O)[C@@H]1O (stereo partly drawn) [LacNAc, N-acetyl-D-lactosamine]
LV ejection fraction [1]: improved LV ejection fraction | LV relaxation (Ei/Ai, PE/PA and DT) [1]: improved LV relaxation | capillary density [1]: increased capillary density | myocyte hypertrophy [1]: decreased myocyte hypertrophy | oxygen diffusion [1]: increased oxygen diffusion | stroke volume and cardiac output [1]: increased stroke volume and cardiac output | reduction of reactive interstitial fibrosis (115 mg LacNAc oral daily for 3 months, 3 dogs, compared to historical untreated controls matched for LV ejection fraction, gender, duration of heart failure): ~57% | VFIF (LV Volume fraction of interstitial fibrosis) [2]: 5.27% (2×) and 6.07% | VFIF (LV Volume fraction of interstitial fibrosis) [3]: 5.54% | ODD (Oxygen diffusion distance) [2]: 9.18 μm and 9.48 μm and 9.11 μm | ODD (Oxygen diffusion distance) [3]: 9.26 μm | VFRF (LV volume fraction of replacement fibrosis) [2]: 10.4% and 13.6% and 13.8% | VFRF (LV volume fraction of replacement fibrosis) [3]: 12.6% | MCSA (myocyte cross-sectional area) [2]: 373 μm^2 and 393 μm^2 and 418 μm^2 | MCSA (myocyte cross-sectional area) [3]: 395 μm^2 | Cap/mm^2 (Capillary density) [2]: 2989 Cap/mm^2 and 2977 Cap/mm^2 and 3042 Cap/mm^2 | Cap/mm^2 (Capillary density) [3]: 3002 Cap/mm^2 | Cardiac Output: 2.02 L/min and 1.80 L/min and 1.67 L/min | Cardiac Output (mean): 1.83 L/min | PE/PA: 1.82 and 2.52 and 1.84 | PE/PA (mean): 2.06 | Ei/Ai: 4.26 and 4.43 and 3.25 | Ei/Ai (mean): 3.98 | Stroke Volume: 24 mL and 20 mL and 19 mL | Stroke Volume (mean): 21 mL | Left Ventricular Fractional Area of Shortening: 31% and 41% and 29% | Left Ventricular Fractional Area of Shortening (mean): 33.7% | Left Ventricular Ejection Fraction: 42% and 38% and 31% | Left Ventricular Ejection Fraction (mean): 37% | Left Ventricular End-Systolic Volume: 33 ml (2×) and 43 ml | Left Ventricular End-Systolic Volume (mean): 36 mL | Left Ventricular End-Diastolic Volume: 57 mL and 53 mL and 62 mL | Left Ventricular End-Diastolic Volume (mean): 57 mL | Diastolic Aortic Pressure: 60 mmHg and 67 mmHg and 62 mmHg | Diastolic Aortic Pressure (mean): 63 mmHg | Mean Aortic Pressure: 72 mmHg and 76 mmHg and 73 mmHg | Mean Aortic Pressure (mean): 74 mmHg | Heart Rate: 84 beats/min and 90 beats/min and 88 beats/min | Heart Rate (mean): 87 beats/min | Systolic Aortic Pressure: 88 mmHg (2×) and 90 mmHg | Systolic Aortic Pressure (mean): 89 mmHg | DT: 162 msec (2×) and 115 msec | DT (mean): 146 ms | Systemic Vascular Resistance: 2857 dynes-sec-cm^-5 and 3378 dynes-sec-cm^-5 and 3493 dynes-sec-cm^-5 | Systemic Vascular Resistance (mean): 3243 dynes-sec-cm^-5
